In brackets after ≈: the same amount, converted by molar mass. Read-outs that look alike come from different tables or passages of the source.
Assay: Solubility of Compound (V) in water and organic solvents
Format: physicochemical
Conditions: for solubility: read-out: Concentration in pure solvents (solubility)
Protocol: Example 1 Solubility of Compound (V) in Organic Solvents
The solubility of Compound (V) in water and in a set of organic solvents was determined.

Solubility in words (acetonitrile): highly soluble | solubility (acetonitrile (pure solvent), organic solvent or mixture): > 200 mg/mL | solubility (ethanol (pure solvent), organic solvent or mixture, EtOH): 10 mg/mL (≈ 37.8 mM) | solubility (isopropanol (pure solvent), organic solvent or mixture, iPrOH): < 5 mg/mL | solubility (methanol (pure solvent), organic solvent or mixture, MeOH): < 50 mg/mL | solubility (water (pure solvent), water): < 5 mg/mL
SMILES: CCOC(=O)c1cn([C@H]2COCC[C@@H]2C#N)nc1N (racemic) [Compound (V), ethyl 3-amino-1-[(3R,4S)-4-cyanotetrahydropyran-3-yl]pyrazole-4-carboxylate and ethyl 3-amino-1-[(3S,4R)-4-cyanotetrahydropyran-3-yl]pyrazole-4-carboxylate]
